Results on one substance are retold here after US20040062848A1, “Lapactic agent” (priority 2002, published 2004).

A short description of the data set: Acute toxicity (LD50). Particulars: in vivo.

In the case of ε-polylysine hydrochloride, the “acute toxicity in LD50” value was no less than 5000 mg/kg.
